We go through 8 compounds from patent US5733719A, “Method of making an assay compound” (priority 1995, dated 1998).

In test [1] the test system is enzyme. The test is described as follows: Effect of dithioerythritol (DTE) on substrate sensitivity. The conditions noted are these: dithioerythritol (DTE) at 1 mM. An excerpt:
Modulators are components used to […] the sensitivity of the enzyme for the leaving group. The modulators speed up or slow down the activity of an enzyme by changing the active site. […] Preferred modulators for particular enzymes are included in Table 1.

Test [2] relates to Grans. Briefly: Peptidases to distinguish leukemia from non-leukemia, granulocytes. More on the design: unit not given here. Format: cell-based, human. An excerpt: (§1) Artificial intelligence was used to analyze data of cellular enzyme functions, and determine normal and disease states. Peptidases were used to distinguish leukemia from non-leukemia (output pattern). For input patterns lymphocyte and granulocyte cell types were used with aminopeptidases, cathepsins and dipeptidylpeptidase enzyme activities. In this Example, illustrated in Tables 6A-6C, three normals and three leukemia patients were used as known output patterns for the neural network to learn (in practice, the larger the learning set the more accurate unknown prediction will be). Unknowns were then presented to the learned algorithm as shown in the test case examples. Clinical diagnosis was confirmed by physicians. The trained neural network was able to correctly classify the leukemia from the non-leukemia.

The test system of test [3] is Lymphs. The test is described as follows: Peptidases to distinguish leukemia from non-leukemia, lymphocytes. It is filed as cell-based, human. More on the design: unit not given here.
From the text: as §1

Each structure is given as a SMILES string. Numbered stars: 1 amine (or outer) side, 2 acyl side, 3 side chain; on linkers, the order of the positions; unused ones are H or OH. Bridge positions count the residues as written; N and C are the ends. Peptide text beside a SMILES is read from it. I, II: the chains in the order shown. Rhodamine110 = O=C1OC2(c3ccc(N[*:1])cc3Oc3cc(N[*:2])ccc32)c2ccccc21

Turning to `C[C@H](N)C(=O)NCC(=O)Nc1ccc2c(c1)Oc1cc(NC(=O)CNC(=O)[C@H](C)N)ccc1C21OC(=O)c2ccccc21` [Ala-Gly], the “effect of DTE on sensitivity” value in test [1] is on record as “does not change the sensitivity”.

For the compound `C[C@H](N)C(=O)N[C@@H](C)C(=O)Nc1ccc2c(c1)Oc1cc(NC(=O)[C@H](C)NC(=O)[C@H](C)N)ccc1C21OC(=O)c2ccccc21` [ALA-ALA*], the “effect of DTE on sensitivity” value in test [1] is listed as “decreases the sensitivity”.

On to `NC(=O)CC[C@H](N)C(=O)N[C@@H](CO)C(=O)Nc1ccc2c(c1)Oc1cc(NC(=O)[C@H](CO)NC(=O)[C@@H](N)CCC(N)=O)ccc1C21OC(=O)c2ccccc21` (relative stereo) [GLN-SER*], for which the “effect of DTE on sensitivity” value in test [1] is “decreases the sensitivity”.

For `CC(C)C[C@H](N)C(=O)NCC(=O)Nc1ccc2c(c1)Oc1cc(NC(=O)CNC(=O)[C@@H](N)CC(C)C)ccc1C21OC(=O)c2ccccc21` [LG], the enzyme activity in test [2] (J4 11/21/91 acute leuk.) turned out to be 0.85; in test [2] (J4 12/2/91 AL), 0.79; in test [2] (J4 12/3/91 acute leuk.), 1.06; in test [2] (J5 11/27/91 AML) it was 2.51; in test [2] (J19 11/27/91 CLL), 36.35; in test [2] (J22 12/2/91 AML), 1.56. The enzyme activity in test [2] (J22 12/9/91 AML) amounted to 1.94; in test [2] (N99° normal) it was 2.022; in test [2] (N191 normal), 5.37; in test [2] (N192 normal), 6.78; in test [2] (N193 normal), 3.65; in test [2] (N194 normal), 3.52. Also, the enzyme activity in test [2] (N195 normal) is 4.11; in test [2] (N197 normal) it was 4.41; in test [2] (N200 normal) it was 3.40; in test [2] (N201 normal), 3.14; in test [2] (N202 normal), 2.70; in test [2] (N206 normal) it was 6.01. The enzyme activity came out at 2.52 in test [2] (P68 tachycardia); 3.53 in test [2] (P69 pancreatic CA); 2.20 in test [2] (P70 cirrhosis/hemobilia); 4.00 in test [2] (P71 ac. pyelonephritis); 0.16 in test [3] (J4 11/21/91 acute leuk.); 0.18 in test [3] (J4 12/2/91 AL). The enzyme activity in test [3] (J4 12/3/91 acute leuk.) was 0.19; in test [3] (J5 11/27/91 AML), 0.23; in test [3] (J19 11/27/91 CLL), 0.02; in test [3] (J22 12/2/91 AML), 0.02; in test [3] (J22 12/9/91 AML), 0.61; in test [3] (N99° normal) it was 0.85. The enzyme activity in test [3] (N191 normal) stood at 2.42; in test [3] (N192 normal), 3.45; in test [3] (N193 normal), 1.56; in test [3] (N194 normal), 2.06; in test [3] (N195 normal), 1.93; in test [3] (N197 normal), 1.79. In addition, the enzyme activity is recorded as 1.55 in test [3] (N200 normal); 1.57 in test [3] (N201 normal); 1.28 in test [3] (N202 normal); 3.12 in test [3] (N206 normal); 0.78 in test [3] (P68 tachycardia); 2.00 in test [3] (P69 pancreatic CA). Also, the enzyme activity came out at 0.79 in test [3] (P70 cirrhosis/hemobilia) and 0.68 in test [3] (P71 ac. pyelonephritis).

Consider `CC(C)[C@H](N)C(=O)N[C@@H](CCCCN)C(=O)N[C@H](C(=O)N[C@@H](CCCCN)C(=O)Nc1ccc2c(c1)Oc1cc(NC(=O)[C@H](CCCCN)NC(=O)[C@@H](NC(=O)[C@H](CCCCN)NC(=O)[C@@H](N)C(C)C)C(C)C)ccc1C21OC(=O)c2ccccc21)C(C)C` [Val-Lys-Val-Lys, (H--L--Val--Lys--Val--Lys)2 Rho 110-6TFA] (I: H-VKVK / II: H-VKVK; linker I:C-II:C via Rhodamine110), for which the “effect of DTE on sensitivity” value in test [1] is “decreases the sensitivity”.

Regarding `NCC(=O)N1CCC[C@H]1C(=O)Nc1ccc2c(c1)Oc1cc(NC(=O)[C@@H]3CCCN3C(=O)CN)ccc1C21OC(=O)c2ccccc21` [GP], the enzyme activity in test [2] (J4 11/21/91 acute leuk.) stood at 10.75; in test [2] (J4 12/2/91 AL) it was 11.08; in test [2] (J4 12/3/91 acute leuk.), 1.28; in test [2] (J5 11/27/91 AML), 8.95; in test [2] (J19 11/27/91 CLL), 1.39; in test [2] (J22 12/2/91 AML), 13.98. In addition, the enzyme activity in test [2] (J22 12/9/91 AML) is 11.52; in test [2] (N99° normal) it was 13.41; in test [2] (N191 normal), 11.20; in test [2] (N192 normal), 11.22; in test [2] (N193 normal), 8.87; in test [2] (N194 normal), 12.49. In addition, the enzyme activity in test [2] (N195 normal) was determined as 13.31; in test [2] (N197 normal) it was 15.85; in test [2] (N200 normal), 12.74; in test [2] (N201 normal), 15.92; in test [2] (N202 normal) it was 14.44; in test [2] (N206 normal) it was 17.96. Besides, the enzyme activity in test [2] (P68 tachycardia) amounted to 16.08; in test [2] (P69 pancreatic CA), 16.21; in test [2] (P70 cirrhosis/hemobilia), 16.42; in test [2] (P71 ac. pyelonephritis), 11.07; in test [3] (J4 11/21/91 acute leuk.) it was 2.72; in test [3] (J4 12/2/91 AL), 3.80. The enzyme activity in test [3] (J4 12/3/91 acute leuk.) was 4.17; in test [3] (J5 11/27/91 AML), 3.40; in test [3] (J19 11/27/91 CLL), 1.73; in test [3] (J22 12/2/91 AML) it was 1.73; in test [3] (J22 12/9/91 AML), 3.01; in test [3] (N99° normal) it was 5.55. Further, the enzyme activity in test [3] (N191 normal) worked out at 4.14; in test [3] (N192 normal), 3.00; in test [3] (N193 normal), 3.00; in test [3] (N194 normal), 5.22; in test [3] (N195 normal), 5.24; in test [3] (N197 normal), 5.97. The enzyme activity is 5.38 in test [3] (N200 normal); 6.53 in test [3] (N201 normal); 6.61 in test [3] (N202 normal); 7.09 in test [3] (N206 normal); 5.92 in test [3] (P68 tachycardia); 6.80 in test [3] (P69 pancreatic CA). For the same compound, the enzyme activity in test [3] (P70 cirrhosis/hemobilia) came out at 6.68; in test [3] (P71 ac. pyelonephritis), 3.55.

With `CC(C)[C@H](N)C(=O)N[C@@H](CO)C(=O)Nc1ccc2c(c1)Oc1cc(NC(=O)[C@H](CO)NC(=O)[C@@H](N)C(C)C)ccc1C21OC(=O)c2ccccc21` [VS, (H--L--Val--Ser)2 Rho 110-2TFA], the enzyme activity is 0.37 in test [2] (J4 11/21/91 acute leuk.); 0.14 in test [2] (J4 12/2/91 AL); 0.23 in test [2] (J4 12/3/91 acute leuk.); 1.13 in test [2] (J5 11/27/91 AML); 2.83 in test [2] (J19 11/27/91 CLL); 0.22 in test [2] (J22 12/2/91 AML). For the same compound, the enzyme activity is given as 0.32 in test [2] (J22 12/9/91 AML); 0.14 in test [2] (N99° normal); 0.64 in test [2] (N191 normal); 0.40 in test [2] (N192 normal); 0.44 in test [2] (N193 normal); 0.29 in test [2] (N194 normal). In addition, the enzyme activity in test [2] (N195 normal) was determined as 0.37; in test [2] (N197 normal) it was 0.58; in test [2] (N200 normal), 0.24; in test [2] (N201 normal), 0.32; in test [2] (N202 normal), 0.24; in test [2] (N206 normal) it was 1.03. The enzyme activity was 0.33 in test [2] (P68 tachycardia); 0.57 in test [2] (P69 pancreatic CA); 0.26 in test [2] (P70 cirrhosis/hemobilia); 0.69 in test [2] (P71 ac. pyelonephritis); 0.05 in test [3] (J4 11/21/91 acute leuk.); 0.03 in test [3] (J4 12/2/91 AL). The enzyme activity in test [3] (J4 12/3/91 acute leuk.) is given as 0.04; in test [3] (J5 11/27/91 AML), 0.05; in test [3] (J19 11/27/91 CLL) it was 0.01; in test [3] (J22 12/2/91 AML), 0.01; in test [3] (J22 12/9/91 AML), 0.04; in test [3] (N99° normal), 0.03. Moreover, the enzyme activity in test [3] (N191 normal) is 0.14; in test [3] (N192 normal), 0.08; in test [3] (N193 normal) it was 0.09; in test [3] (N194 normal), 0.07; in test [3] (N195 normal) it was 0.06; in test [3] (N197 normal), 0.11. For the same compound, the enzyme activity in test [3] (N200 normal) is recorded as 0.06; in test [3] (N201 normal), 0.07; in test [3] (N202 normal), 0.04; in test [3] (N206 normal), 0.28; in test [3] (P68 tachycardia), 0.05; in test [3] (P69 pancreatic CA) it was 0.18. The enzyme activity is 0.04 in test [3] (P70 cirrhosis/hemobilia) and 0.08 in test [3] (P71 ac. pyelonephritis).

`C[C@H](N)C(=O)N[C@@H](C)C(=O)N[C@@H](C)C(=O)N[C@@H](C)C(=O)Nc1ccc2c(c1)Oc1cc(NC(=O)[C@H](C)NC(=O)[C@H](C)NC(=O)[C@H](C)NC(=O)[C@H](C)N)ccc1C21OC(=O)c2ccccc21` [Ala-Ala-Ala-Ala, (H--L Ala--Ala--Ala--Ala)2 Rho 110-2TFA] (I: H-AAAA / II: H-AAAA; linker I:C-II:C via Rhodamine110): the “effect of DTE on sensitivity” value in test [1] is listed as “decreases the sensitivity”.
